The values that follow come from PubChem BioAssay AID179 (DTP/NCI, 2004).

This experiment relates to CEM cells HIV-1 protection, formazan growth assay. Nature of the experiment: NCI AIDS Antiviral Assay. To be noted: for IC50: measured here: growth of uninfected CEM cells. The essentials:
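Category rules: moderately active means at least 50% protection on retest, and confirmed active means 100% protection reproducibly. The underlying data came from a formazan growth assay in HIV-1-infected CEM cells.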

Activity calls are given as the source filed them.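 Rule for the calls: active = compounds giving half or more protection of infected cells from virus-caused growth loss, again on retest; inactive = the rest.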 Where a SMILES comes first, the peptide text is derived from it. [ ]: non-standard residue; d: D form. The star is where a group is joined. Phe(4-NO2) = N[CH](Cc1ccc([N+](=O)[O-])cc1)C(=O)O; Boc = CC(C)(C)OC(=O)*; OtBu = CC(C)(C)O*

As to `CCCCNC(=NCc1ccccc1)NC#N`, the EC50 was over 407 µM and the IC50 was 295 µM.

In the case of `N#CC(C#N)=Cc1ccccc1F`, the EC50 is over 102 µM and the half-inhibitory concentration (IC50) worked out at 17.4 µM. Taken in the same sequence, the figures for `O=c1oc2ccccc2c(O)c1Cc1ccccc1Cc1c(O)c2ccccc2oc1=O` were over 200 µM and 102 µM. With `C[C@H](O)CCC(=O)c1ccoc1`, the EC50 is over 1480 µM and the 50% inhibitory concentration (IC50) was over 1480 µM. For the molecule `CNC(=O)CCC(NC(=O)OC(C)(C)C)C(=O)NC(Cc1ccc([N+](=O)[O-])cc1)C(=O)NCC(=O)NC` (stereo not given) (Boc-Glu(NHMe)-[Phe(4-NO2)]-Gly-NHMe; configuration not given here), the EC50 was over 200 µM and the half-inhibitory concentration (IC50) was over 200 µM. With `C[C@H]1CCC/C=C/[C@@H]2C[C@H](OC(=O)CN(C)C)C[C@H]2[C@H](O)/C=C/C(=O)O1`, the EC50 is over 2 µM and the IC50 was determined as 0.339 µM. Regarding `CCOc1cccc2ccc[n+](CC)c12`, the EC50 was over 251 µM and the IC50 amounted to 25.1 µM. For the molecule `C(/C=C/c1ccccc1)=Nc1ccc(SSc2ccc(N=C/C=C/c3ccccc3)cc2)cc1`, the EC50 was over 200 µM and the IC50 worked out at 16.6 µM. Taken in the same sequence, the figures for `Nc1[nH]c(=O)[nH]c(=O)c1Cc1cccc(Cl)c1` were over 200 µM and 39.8 µM. Regarding `Cc1cc(N(CCC#N)CCC#N)ccc1/C(N=Nc1cccc([N+](=O)[O-])c1)=N/NC(=O)c1cc(Cl)ccc1O`, the EC50 was over 200 µM and the IC50 was determined as 12 µM. Turning to `O=C(Nn1c(-c2ccccc2)nc2ccccc2c1=O)c1ccccc1O`, the EC50 is over 200 µM and the IC50 was found to be 17.4 µM. For `COc1cccc2c(SCC(=O)Nc3ccccc3-c3ccccc3NC(=O)CSc3c4ccccc4nc4c(OC)cccc34)c3ccccc3nc12`, the result was inactive. In the case of `O=C1Nc2ccc(Cl)c(I)c2C1=O`, the EC50 was over 61.7 µM and the IC50 turned out to be 35.5 µM.

As for `O=C(Nc1nc2ncn(CCI)c2c(=O)[nH]1)c1ccccc1`, the EC50 was over 63.1 µM and the concentration for half-maximal inhibition (IC50) is over 63.1 µM. Regarding `COc1ccccc1C1c2cc3c(cc2OC(O)(CO)C1C(=O)O)OCO3` (stereo not given) (tested in a mixture with another compound), the result was inactive. As to `O=C1Cn2c(c3ccccc3nc2=O)N1`, the EC50 is over 10 µM and the IC50 is over 10 µM. Turning to `COC(=O)/C=C(C)/C=C/c1c(C)c(C(C)=O)c(C)n1C`, the EC50 was over 129 µM and the concentration for half-maximal inhibition (IC50) was over 129 µM. For the molecule `CCCCCCCCCCCCNS(=O)(=O)c1ccc(-c2c3nc(c(-c4ccc(S(=O)(=O)NCCCCCCCCCCCC)cc4)c4ccc([nH]4)c(-c4ccc(S(=O)(=O)NCCCCCCCCCCCC)cc4)c4nc(c(-c5ccc(S(=O)(=O)NCCCCCCCCCCCC)cc5)c5ccc2[nH]5)C=C4)C=C3)cc1`, the EC50 was over 100 µM and the IC50 is over 100 µM. In turn, `CCOc1ccccc1/C=C(/C#N)C(N)=O` had a half-maximal effective concentration (EC50) of over 200 µM and a half-maximal inhibitory concentration (IC50) of 117 µM. The matching figures for `CC(O)c1ccc(C(O)/C(=N\NC(=O)c2ccncc2)c2nc3ccc([N+](=O)[O-])cc3[nH]c2=O)cc1` (stereo not given): over 74.1 µM and 60.3 µM. Take `CC(=O)NC(CCC(=O)OC(C)(C)C)C(=O)NC(CCC(=O)OC(C)(C)C)C(=O)NC(Cc1ccc([N+](=O)[O-])cc1)C(=O)NC(CCCCNC(=O)OC(C)(C)C)C(=O)NC(CCCCNC(=O)OC(C)(C)C)C(=O)NCC(=O)O` (stereo not given) (Ac-E(OtBu)E(OtBu)[Phe(4-NO2)]K(Boc)K(Boc)G-OH; configuration not given here): the EC50 was over 200 µM and the IC50 is over 200 µM.

Take `CC(=O)Oc1c(Br)cc(-c2oc(-c3cc(Br)c(OC(C)=O)c(Br)c3)c3ccccc23)cc1Br`: the EC50 is over 100 µM and the half-inhibitory concentration (IC50) is 38.9 µM. The matching figures for `Cc1ccc(N/N=C/C2=CC(C)(C)C(C#N)(C#N)C(O)=C2C#N)cc1`: over 200 µM and 6.61 µM. Taken in the same sequence, the figures for `CCOC(OCC)/C(C)=N/[N+](C)(C)C` were over 200 µM and over 200 µM. Taken in the same sequence, the figures for `Clc1cccc(Sc2ccccc2)c1` were over 23.4 µM and over 23.4 µM. Turning to `O=c1c2ccccc2c(=O)c2cc3c(=O)n(-c4ccccc4)c(=O)c3cc12`, the result was inactive. Consider `Cc1cc(=O)oc2c3c(cc(OC(C)C)c12)O[C@H](C)[C@@H](C)C3=O`, for which the EC50 is over 200 µM and the IC50 amounted to 40.7 µM. The matching figures for `CCC1COc2nc(=O)c(C=NCCCN(C)C)c(N)n21` (stereo not given): over 302 µM and over 302 µM. Regarding `C/C(=N/NC(=O)c1ccncc1)c1ccc(NC(=O)C(=O)Nn2c(=S)[nH]c3ccccc3c2=O)cc1`, the EC50 is over 51.3 µM and the IC50 was over 51.3 µM. On to `C=C1c2c(Cl)ccc(O)c2C(O)=C2C(=O)C3(O)C(O)=C(C(N)=O)C(=O)C(N(C)C)C3C(O)C12` (stereo not given), for which the EC50 was over 200 µM and the IC50 worked out at 11 µM.

Turning to `CCS(CC)(CC)CC1CCCC2=CCC(P(=O)(c3ccccc3)c3ccccc3)CC21` (stereo not given), the EC50 was over 15.5 µM and the IC50 is over 15.5 µM.

Regarding `O=c1[nH]c2cc(Cl)ccc2nc1/C(=N\Nc1ccccc1)C(O)c1ccc(Cl)c(Cl)c1` (stereo not given), the EC50 was over 219 µM and the IC50 is 18.2 µM.

With `O=C(/C=C\c1cccc2ccccc12)c1cccc2ccccc12`, the EC50 was over 8.91 µM and the IC50 was over 8.91 µM. `COc1ccc(O)c2c1C(=O)CCCC2=O`: the result was inactive. Turning to `Cc1cc2c(=O)[nH]nc(N)c2c(N)n1`, the EC50 was over 200 µM and the IC50 is over 200 µM. Turning to `Nn1c(-c2ccccc2)nc2ccc(Br)cc2c1=O`, the outcome was inactive. `CC(C)(C)OC(=O)N[C@H]1CC2(C=C(Cl)C(=O)C(Cl)=C2)OC1=O`: the result was inactive. For `CC(=O)O/N=C/c1ncccc1OC(C)=O`, the EC50 is over 1120 µM and the concentration for half-maximal inhibition (IC50) is over 1120 µM. As to `CN(C)CC1CN(C(=O)Nc2ccccc2)C(=N)O1` (stereo not given), the EC50 was over 200 µM and the concentration for half-maximal inhibition (IC50) was over 200 µM. For the molecule `O=C(NC(CSC(c1ccccc1)c1ccccc1)C(=O)Oc1ccc([N+](=O)[O-])cc1)OCc1ccccc1` (stereo not given), the EC50 was over 200 µM and the IC50 worked out at 85.1 µM.

On to `Cc1ccc(C)c(NC(=O)CC2SC(=Nc3ccccc3Cl)NC2=O)c1` (stereo not given), for which the EC50 was over 67.6 µM and the concentration for half-maximal inhibition (IC50) is over 67.6 µM.

For `Cc1nc(C(=O)O)c(C(=O)O)[nH]1`, the EC50 was over 200 µM and the IC50 is over 200 µM. For `Nc1nc(NC2C3CC4CC(C3)CC2C4)nc(-c2n[nH]c(=S)o2)n1` (stereo not given), the EC50 is over 55 µM and the 50% inhibitory concentration (IC50) amounted to 28.2 µM. As for `O=C1C=CC(=O)C2C3c4ccccc4C(c4ccccc43)C12` (stereo not given), the EC50 is over 34.7 µM and the half-inhibitory concentration (IC50) is over 34.7 µM.

Turning to `COc1cccc(C2(C#N)CCN(C)CC2)c1`, the EC50 was over 1070 µM and the half-inhibitory concentration (IC50) was found to be 537 µM. Taken in the same sequence, the figures for `CCCOC(=O)CCC(NC(=O)c1ccc(Nc2nc3ccccc3nc2-c2cccs2)cc1)C(=O)OCCC` (stereo not given) were over 4.9 µM and over 4.9 µM. The matching figures for `COc1cc(C(=O)Nc2nnc(S(N)(=O)=O)s2)cc(OC)c1OC`: over 200 µM and over 200 µM. The matching figures for `S=C1CC(c2ccccc2)Sc2ccccc2N1` (stereo not given): over 200 µM and 95.5 µM. Consider `c1cncc(C2(c3cc4ccccc4[nH]3)COCO2)c1` (stereo not given), for which the EC50 was over 200 µM and the concentration for half-maximal inhibition (IC50) is 126 µM.

`OC1(C2(O)CCC2)CCC1`: the EC50 was over 200 µM and the 50% inhibitory concentration (IC50) was over 200 µM.

As to `CN1N(c2ccccc2)C(=O)C2=NC=C(C#N)C(=N)C21C` (stereo not given), the EC50 was over 200 µM and the half-inhibitory concentration (IC50) stood at 64.6 µM. Taken in the same sequence, the figures for `CCCCOP(=O)(/N=C/OC(C)C)OCCCC` were over 200 µM and over 200 µM. Taken in the same sequence, the figures for `CON(C)C(=O)C(Cc1ccccc1)NC(=O)OC(C)(C)C` (stereo not given) were over 813 µM and 155 µM. The matching figures for `Cc1ccc(/C(O)=C/C(=O)C(=O)NN=C(c2ccccc2)c2ccccc2)cc1`: over 200 µM and 107 µM.

On to `O=C1C(=c2ccc(=C3C(=O)c4ccc([N+](=O)[O-])cc4[N+]3=O)cc2)N([O-])c2cc([N+](=O)[O-])ccc21`, for which the EC50 was over 11.5 µM and the IC50 was over 11.5 µM. For `O=C(NN1C(=O)C(Cl)C1c1ccc(O)cc1)c1ccccc1O` (stereo not given), the EC50 is over 21.9 µM and the IC50 worked out at 10.2 µM.

In the case of `CC(=O)N(O)Cc1ccccc1`, the EC50 is over 1510 µM and the concentration for half-maximal inhibition (IC50) amounted to 692 µM. Taken in the same sequence, the figures for `CCCCCCCCCCCCCCCCOC1OC(CO)C(O)C(O)C1O` (stereo not given) were over 9.33 µM and over 9.33 µM. As to `Clc1ccc(-c2nc3ccc(C45CC6CC(CC(C6)C4)C5)cc3[nH]2)cc1`, the EC50 is over 100 µM and the IC50 was over 100 µM. Regarding `Cn1c(=O)oc2cc(C(=O)CSC(=S)N3CCCCCC3)ccc21`, the EC50 is over 200 µM and the IC50 was 135 µM.

In the case of `O=C1CCCc2cc3c(cc21)CC1(Cc2ccccc2C1)C3`, the EC50 was over 200 µM and the IC50 was found to be 1.29 µM. Regarding `COc1ccc2c(c1)c(=O)c1c(NCCNCCO)ccc3c(=O)n(CCN(C)C)c(=O)n2c31`, the EC50 is over 0.0427 µM and the 50% inhibitory concentration (IC50) came to 0.0339 µM.

In the case of `CC(=O)OC12C3C4C1C1C2C3C41OC(C)=O` (stereo not given), the EC50 was over 200 µM and the half-maximal inhibitory concentration (IC50) was over 200 µM. As to `C/C(N=NC(=S)N1CCCCCC1)=C1\C=CC=CN1O`, the EC50 is over 123 µM and the half-maximal inhibitory concentration (IC50) was 2.14 µM. As for `Nc1ccc(C(=O)N/C(=C\c2cccc([N+](=O)[O-])c2)c2nc3c4c(ccc3[nH]2)C(=O)c2ccccc2C4=O)cc1`, the outcome was inactive. For `Cc1ccc(S(=O)(=O)N2C3C=CC(C3)[C@@H]2C(Cl)(Cl)Cl)cc1` (stereo not given in full), the EC50 was over 200 µM and the IC50 turned out to be 30.9 µM. Taken in the same sequence, the figures for `CCOC1OC(CO)C(O)CC1n1ccc(=O)[nH]c1=O` (stereo not given) were over 200 µM and 97.7 µM. Take `CN1CC(=O)N(C)c2nc[nH]c2C1=O`: the result was inactive. Regarding `CCN(CC)CCOC(=O)c1cc2ccccc2[nH]1`, the EC50 is over 200 µM and the concentration for half-maximal inhibition (IC50) is over 200 µM.
